Consider two compounds from patent US11661453B2 (Tesaro, Inc., priority 2017, dated 2023).

The subject of data set [1] is MMTV-LPA1 breast (LPA-T22). As to the kind of experiment: Tumor growth inhibition, syngeneic MMTV-LPA1 breast model. The data set is classed as in vivo, mouse. As to conditions: niraparib orally once daily, antibody intraperitoneally twice weekly. The text has this:
(§1) A panel of 14 syngeneic or humanized xenograft models representing BRCA-proficient (wild-type) and BRCA-deficient (mutant) cancers derived from breast, lung, ovary, skin, sarcoma, bladder and colon tumors was established. The panel included the following genetically engineered mouse tumor models: 1) KrasG12D and PTEN null bladder (BL6078), 2) TP53 null sarcoma (SA9003), 3) MMTV-LPA1 breast (LPA-T22), 4) BRCA1 mutant breast (MDA-MB-436; also referred to as MM-436), 5) APC^Min heterozygous mutant skin (SK6005), and 6) BRCA1−/−, TP53−/−, KrasG12D ovarian (BRKras) models. While the bladder syngeneic model was BRCA1 wild-type, the sarcoma model harbored BRCA1 A122E and S123X heterozygous mutations. Specifically, mice were administered treatments after tumors reached 50-150 mm^3. […] The suboptimal dose administered for specific tumor models was as follows: 35 mg/kg daily for 5 consecutive days per week (QD×5/week) for the BR1126 tumor model, 35 mg/kg (QD×5/week) for the MDA-MB-436 tumor model, 30 mg/kg for the BRKras tumor model, and 25 mg/kg daily for the SK6005 tumor model. The anti-PD-1 antibody (RMP1-14/2C4) or the anti-PD-L1 antibody (10F.9G2) was administered twice weekly intraperitoneally at 10 mg/kg dose unless otherwise noted. […] Tumor growth was monitored twice per week.

The test system of data set [2] is cancer cell lines that have been silenced for BRCA-1 or BRCA-2, or carry BRCA-1 or BRCA-2 mutations. As to conditions: cited from earlier work.
The next data set relates to normal human cells. As to conditions: cited from earlier work.
For data set [3], the system named is selected Ewing's sarcoma, ALL, NSCLC and SCLC cell lines, tumor cell lines carrying homozygous inactivation of the ATM gene. As to conditions: cited from earlier work.
Another data set has as its system MDA-MB-436 cells. An excerpt:
(§2) The cells were subsequently analyzed for expression of Stimulator of Interferon Genes (STING) pathway proteins via Western blotting.

In a further data set the test system is DLD1 BRCA2−/− cells. As to conditions: 300 nM for 24 or 48 hours.
Text: as §2

For data set [4], the system named is TP53 null sarcoma (SA9003). As to the kind of experiment: Tumor growth inhibition, TP53 null sarcoma model. The data set is classed as in vivo, mouse. As to conditions: niraparib orally once daily, antibody intraperitoneally twice weekly.
Text: as §1

The subject of data set [5] is KrasG12D and PTEN null bladder (BL6078). The experiment in a line: Tumor growth inhibition, Kras G12D and PTEN null bladder model. As to conditions: mouse, in vivo.
Text: as §1

Data set [6] concerns MDA-MB-436, CAPAN-1, GRANTA-519, OVCAR3, HT29, DLD-1, patient derived Ewing's sarcoma and TNBC xenograft models. As to conditions: xenograft models in mice; cited from earlier work.
The test system of another data set is PARP activity. As to conditions: PARP activity stimulated by DNA damage caused by hydrogen peroxide, various cell lines, cited from earlier work.
In data set [7] the test system is non-small-cell lung cancer, melanoma, and renal-cell cancer. As to conditions: Phase I clinical trial; cited from earlier work.

With `NC(=O)c1cccc2cn(-c3ccc([C@@H]4CCCNC4)cc3)nc12` [Niraparib, (3 S)-3-[4-{7-(aminocarbonyl)-2H-indazol-2-yl}phenyl]piperidine], the “tumor growth inhibition (TGI)” value in data set [1] was 45%; in data set [4], 1%. Besides, the “consequence on cell cycle” value in data set [2] (BRCA-defective cells) is listed as “cell cycle arrest in G2/M followed by apoptosis”. The anti-proliferative activity result in data set [2] (compared to wild type counterparts) was “selective anti-proliferative activity”. In addition, the “activity on normal human cells” value in the data set with normal human cells is listed as “weak activity”. Moreover, the cytotoxicity result in data set [3] is on record as “selectively cytotoxic”. Also, the “mRNA expression of type-I interferon (IFNB1)” value with MDA-MB-436 cells (300 nM for 24 or 48 hours) is “detected”. In addition, the “expression of STING pathway proteins (p-STING, STING, p-TBK1, TBK1, p-NF-κB p65, NF-κB p65)” value in the data set on MDA-MB-436 cells (1 μM for 48 hours, Western blotting) is listed as “expression of STING pathway proteins”. Moreover, the “mRNA expression of type-I interferon (IFNB1 or IFNA1)” value with DLD1 BRCA2−/− cells is recorded as “detected”. Also, in data set [5], the response to monotherapy result is reported as “neither responsive”. Besides, in data set [6], the “antitumor activity in vivo” value is reported as “strong antitumor activity”. Moreover, in the data set with PARP activity (read-out: IC50 of PARP activity in cell lines), the concentration for half-maximal inhibition (IC50) – broadly, the concentration at which inhibition is half-maximal – is ~4 nM. In addition, the IC90 with PARP activity (read-out: inhibitory concentration at 90% of control (IC90) of PARP activity in cell lines) was ~50 nM.
Turning to “nivolumab: anti-PD-1 monoclonal antibody (Human IgG4)”, the clinical response entry in data set [7] is listed as “complete or partial responses”.
